Source: ChEMBL document CHEMBL5104113, “Biophysical Survey of Small-Molecule β-Catenin Inhibitors: A Cautionary Tale” (J Med Chem, 2022)

How the values were obtained:
SW-620 = assay: Cytotoxicity against human SW-620 cells assessed as cell viability incubated for 72 hrs by cell titre glo assay; assay type: functional, cell-based; details: SW-620, 72 h
[1] = biological target: T1, Catenin beta-1 (Homo sapiens) (UniProt P35222); details: dose 125.0 µM
T1 sequence (whole entry): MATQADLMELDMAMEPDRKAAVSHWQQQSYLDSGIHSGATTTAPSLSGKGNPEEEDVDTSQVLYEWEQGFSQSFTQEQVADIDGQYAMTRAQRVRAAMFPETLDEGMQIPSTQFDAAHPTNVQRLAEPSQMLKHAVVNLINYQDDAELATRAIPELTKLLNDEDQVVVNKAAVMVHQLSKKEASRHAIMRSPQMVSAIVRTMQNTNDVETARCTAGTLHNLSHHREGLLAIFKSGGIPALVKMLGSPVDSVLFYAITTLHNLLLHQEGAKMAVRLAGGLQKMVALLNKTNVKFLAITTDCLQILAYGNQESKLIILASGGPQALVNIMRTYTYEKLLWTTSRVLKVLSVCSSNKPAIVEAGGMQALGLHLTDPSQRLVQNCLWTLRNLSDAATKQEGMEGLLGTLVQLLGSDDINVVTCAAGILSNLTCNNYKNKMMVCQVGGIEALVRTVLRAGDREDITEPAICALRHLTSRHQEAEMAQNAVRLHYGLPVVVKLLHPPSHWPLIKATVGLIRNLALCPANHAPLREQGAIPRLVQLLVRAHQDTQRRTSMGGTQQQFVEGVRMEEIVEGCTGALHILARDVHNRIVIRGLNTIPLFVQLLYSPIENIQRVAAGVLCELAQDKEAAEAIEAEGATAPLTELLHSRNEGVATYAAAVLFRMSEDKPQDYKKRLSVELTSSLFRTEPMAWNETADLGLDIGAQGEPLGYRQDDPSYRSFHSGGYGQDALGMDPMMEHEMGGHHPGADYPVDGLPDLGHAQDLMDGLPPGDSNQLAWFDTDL
Description: Thermal stabilization of wildtype beta catenin ARD (148 to 662 residues) (unknown origin) assessed as change in melting temperature at 125 uM by DSF method

SW480 [2] = assay: Cytotoxicity against human SW480 cells assessed as cell viability incubated for 72 hrs by cell titre glo assay; assay type: functional, cell-based; details: SW480, 72 h
HCT-116 [3] = assay: Cytotoxicity against human HCT-116 cells assessed as cell viability incubated for 72 hrs by cell titre glo assay; assay type: functional, cell-based; details: HCT-116, 72 h
TCF4-CTNNB1 complex = biological target: T2, TCF4-CTNNB1 complex (Homo sapiens, UniProt P35222+Q9NQB0); assay: Inhibition of beta catenin/recombinant GST tagged Tcf4 protein protein interaction in human HCT-116 cells; assay type: cell-based
T2 sequence (P35222 whole entry): T1 sequence (whole entry)
T2 sequence (P15884 whole entry): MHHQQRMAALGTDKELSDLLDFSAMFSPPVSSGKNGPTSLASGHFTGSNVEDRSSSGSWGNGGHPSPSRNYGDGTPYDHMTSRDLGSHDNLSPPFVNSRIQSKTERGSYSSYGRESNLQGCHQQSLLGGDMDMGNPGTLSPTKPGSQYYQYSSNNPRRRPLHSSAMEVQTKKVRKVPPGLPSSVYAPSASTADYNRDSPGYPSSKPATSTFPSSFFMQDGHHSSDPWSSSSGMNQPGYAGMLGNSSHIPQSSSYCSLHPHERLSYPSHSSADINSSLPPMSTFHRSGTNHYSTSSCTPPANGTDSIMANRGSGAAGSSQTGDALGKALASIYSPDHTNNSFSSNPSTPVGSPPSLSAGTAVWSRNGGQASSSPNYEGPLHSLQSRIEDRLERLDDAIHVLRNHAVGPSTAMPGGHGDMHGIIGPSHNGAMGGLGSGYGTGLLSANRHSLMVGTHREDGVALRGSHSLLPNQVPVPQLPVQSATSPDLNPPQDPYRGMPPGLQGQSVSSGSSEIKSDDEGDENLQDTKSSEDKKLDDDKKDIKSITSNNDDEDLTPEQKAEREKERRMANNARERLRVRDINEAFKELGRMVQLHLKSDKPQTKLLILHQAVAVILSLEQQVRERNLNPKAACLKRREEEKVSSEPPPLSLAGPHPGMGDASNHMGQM

Catenin beta-1 [4] = biological target: T3, Catenin beta-1 (Homo sapiens, UniProt P35222)
T3 sequence (P35222 whole entry): T1 sequence (whole entry)
Description: Binding affinity to beta catenin ARD (142 to 686 residues) (unknown origin) assessed as inhibition constant by fluorescence polarisation assay

[5] = biological target: T1, Catenin beta-1 (Homo sapiens)
Description: Binding affinity to beta catenin ARD (142 to 686 residues) (unknown origin) assessed as change in entropy by VP-ITC method

SW480 [6] = assay: Inhibition of cell growth in human SW480 cells incubated for 24 hrs by WST-1 assay; assay type: functional
HCT-116 [7] = assay: Inhibition of cell growth in human HCT-116 cells incubated for 24 hrs by WST-1 assay; assay type: functional
[8] = Downregulation of c-Myc protein expression level in human ASPC1 cells; assay type: functional, cell-based
[9] = Downregulation of c-Myc protein expression level in human PANC-1 cells; assay type: functional, cell-based
Catenin beta-1 [10] = biological target: T3, Catenin beta-1; assay: Binding affinity to N-terminal FLAG tagged beta catenin alpha helix (H1 - 141 to 149 aa) of armadillo repeat domain (unknown origin) by STD/HSQC based NMR analysis
[11] = biological target: T4, beta-catenin-B-cell lymphoma 9 protein complex (Homo sapiens, UniProt P35222); assay: Binding affinity to N-terminal FLAG tagged beta catenin (134 to 671 residues)/FLAG tagged BCL9 domain 2 (343 to 396 residues) (unknown origin) protein protein interaction assessed as inhibition constant; assay type: protein-complex assay
T4 sequence (P35222 whole entry): T1 sequence (whole entry)
T4 sequence (O00512 whole entry): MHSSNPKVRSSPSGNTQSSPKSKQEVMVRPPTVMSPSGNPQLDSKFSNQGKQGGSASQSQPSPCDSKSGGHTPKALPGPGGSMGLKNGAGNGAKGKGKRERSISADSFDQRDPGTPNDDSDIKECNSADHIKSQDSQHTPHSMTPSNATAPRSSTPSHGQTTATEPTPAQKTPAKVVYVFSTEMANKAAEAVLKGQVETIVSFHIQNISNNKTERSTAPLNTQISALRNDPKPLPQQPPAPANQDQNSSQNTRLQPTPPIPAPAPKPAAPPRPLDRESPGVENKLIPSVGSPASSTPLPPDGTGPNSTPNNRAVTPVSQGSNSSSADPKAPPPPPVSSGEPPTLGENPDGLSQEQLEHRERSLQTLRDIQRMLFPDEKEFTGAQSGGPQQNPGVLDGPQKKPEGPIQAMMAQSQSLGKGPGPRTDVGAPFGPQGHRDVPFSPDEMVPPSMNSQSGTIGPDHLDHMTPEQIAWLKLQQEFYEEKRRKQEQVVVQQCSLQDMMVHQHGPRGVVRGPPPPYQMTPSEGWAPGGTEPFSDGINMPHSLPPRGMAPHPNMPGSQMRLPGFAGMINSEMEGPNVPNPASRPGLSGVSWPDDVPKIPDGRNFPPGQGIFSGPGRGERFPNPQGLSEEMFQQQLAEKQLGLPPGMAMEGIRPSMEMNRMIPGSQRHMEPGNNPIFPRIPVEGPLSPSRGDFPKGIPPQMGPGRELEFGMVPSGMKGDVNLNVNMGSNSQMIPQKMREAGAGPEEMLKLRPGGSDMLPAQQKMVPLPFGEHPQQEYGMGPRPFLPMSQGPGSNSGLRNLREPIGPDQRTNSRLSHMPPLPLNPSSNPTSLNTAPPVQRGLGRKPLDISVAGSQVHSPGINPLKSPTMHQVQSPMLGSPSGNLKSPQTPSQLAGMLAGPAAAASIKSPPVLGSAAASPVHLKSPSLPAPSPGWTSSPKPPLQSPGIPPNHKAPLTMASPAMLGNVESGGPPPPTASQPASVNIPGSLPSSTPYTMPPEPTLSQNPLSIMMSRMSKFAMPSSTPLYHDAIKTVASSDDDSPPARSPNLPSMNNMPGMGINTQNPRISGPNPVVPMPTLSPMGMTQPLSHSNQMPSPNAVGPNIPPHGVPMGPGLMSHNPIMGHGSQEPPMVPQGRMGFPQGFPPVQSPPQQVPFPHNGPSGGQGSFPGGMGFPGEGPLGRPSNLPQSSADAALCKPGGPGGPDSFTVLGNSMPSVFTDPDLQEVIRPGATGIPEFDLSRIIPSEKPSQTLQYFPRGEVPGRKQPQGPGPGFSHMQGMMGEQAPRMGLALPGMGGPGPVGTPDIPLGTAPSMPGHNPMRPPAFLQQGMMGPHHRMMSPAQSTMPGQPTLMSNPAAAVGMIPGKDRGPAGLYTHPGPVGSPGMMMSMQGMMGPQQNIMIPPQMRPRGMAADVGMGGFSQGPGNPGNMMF

Catenin beta-1 [12] = biological target: T3, Catenin beta-1; assay: Inhibition of beta catenin in HEK293 cells by TOPflash luciferase reporter assay; assay type: cell-based
[13] = Inhibition of Tcf in HEK293 cells by TOPflash luciferase reporter assay; assay type: cell-based; details: Homo sapiens
[14] = biological target: Poly(ADP-ribose) glycohydrolase (Homo sapiens, UniProt Q86W56); assay: Binding affinity to human PARG assessed as dissociation constant by SPR analysis
Chain of Poly(ADP-ribose) glycohydrolase (Q86W56 whole entry): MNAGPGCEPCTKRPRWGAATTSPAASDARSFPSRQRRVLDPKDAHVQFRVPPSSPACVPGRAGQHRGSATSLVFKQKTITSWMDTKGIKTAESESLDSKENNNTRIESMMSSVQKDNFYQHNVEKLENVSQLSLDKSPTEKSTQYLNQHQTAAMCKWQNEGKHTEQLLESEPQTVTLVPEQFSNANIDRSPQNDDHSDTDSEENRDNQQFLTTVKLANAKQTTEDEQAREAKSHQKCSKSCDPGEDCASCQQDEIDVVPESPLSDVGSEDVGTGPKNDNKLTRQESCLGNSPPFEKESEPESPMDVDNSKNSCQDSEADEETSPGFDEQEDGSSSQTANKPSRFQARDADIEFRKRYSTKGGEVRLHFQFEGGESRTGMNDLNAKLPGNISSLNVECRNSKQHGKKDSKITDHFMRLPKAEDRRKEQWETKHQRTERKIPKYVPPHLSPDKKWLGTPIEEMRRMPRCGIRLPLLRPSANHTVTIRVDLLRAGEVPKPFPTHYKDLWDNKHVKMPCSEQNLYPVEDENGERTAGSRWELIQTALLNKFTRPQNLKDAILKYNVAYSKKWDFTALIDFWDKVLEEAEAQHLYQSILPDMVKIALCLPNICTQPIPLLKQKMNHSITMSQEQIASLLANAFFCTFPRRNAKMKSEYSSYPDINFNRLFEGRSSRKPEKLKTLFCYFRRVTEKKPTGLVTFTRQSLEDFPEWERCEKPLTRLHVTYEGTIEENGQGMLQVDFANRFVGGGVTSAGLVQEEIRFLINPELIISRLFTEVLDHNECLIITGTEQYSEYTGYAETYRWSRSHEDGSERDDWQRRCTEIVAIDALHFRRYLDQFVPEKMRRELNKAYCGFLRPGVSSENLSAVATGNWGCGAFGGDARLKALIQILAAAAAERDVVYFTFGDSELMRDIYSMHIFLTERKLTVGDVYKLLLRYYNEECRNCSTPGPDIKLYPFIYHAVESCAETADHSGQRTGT

[15] = Inhibition of Wnt/beta-catenin (unknown origin) transcriptional activity pathway transfected human H1299 cells by measuring luciferase activity after 24 hrs by TOP-flash luciferase reporter gene assay; assay type: cell-based; details: nci-h1299
A549 = assay: Antiproliferative activity against human A549 cells expressing wnt2 incubated for 72 hrs by celltitre 96 non-radioactive cell proliferation assay kit; assay type: functional, cell-based; details: A549, 72 h

SMILES	ΔTm [1] [°C]	other results
c1ccc(CCNc2nc(N3CCCCC3)nc3ccccc23)cc1	-0.6	IC50 (SW-620): 6.7 µM; IC50 (SW480 [2]): 5.9 µM; IC50 (HCT-116 [3]): 6.2 µM
O=C(Nc1ccc(O[C@H]2CCNC2)c(-c2ccc(F)cc2)c1)c1ccc(O[C@@H]2CCNC2)c(-c2ccc(F)c(F)c2)c1	-0.5	–
O=C(O)c1ccccc1Oc1ccccc1	-0.1	–
COc1c(C[C@H](C)OC(=O)Oc2ccc(O)cc2)c2c3c(C[C@H](C)OC(=O)c4ccccc4)c(OC)c(=O)c4c(O)cc(OC)c(c5c(OC)cc(O)c(c1=O)c52)c43	–	IC50 (TCF4-CTNNB1 complex): 10 µM
COc1cccc(/C=C2/SC(=S)N(CCC(=O)O)C2=O)c1OC	-0.5	–
Cc1cc(Cl)ccc1/N=C\c1ccc(F)c(Oc2ccccc2)c1	0.1	–
Cc1ccc2nc(N(C)C)nc(NCc3ccc(C(=O)NCc4ccc(F)cc4)cc3)c2c1	-0.7	–
Cc1ccc(/C=N/NC(=O)c2ccccc2Oc2ccccc2)o1	-0.5	–
On1ncc2cc(CCc3nn[nH]n3)ccc21	–	Ki (Catenin beta-1 [4]): 3 µM; -TdeltaS [5]: -7.89 kcal/mol
COC(=O)c1cccc(NS(=O)(=O)c2ccc(C)cc2)c1	-0.5	–
O=C(CN1C2=NCCN2c2ccccc21)c1ccc(-c2ccccc2)cc1	-0.1	GI50 (SW480 [6]): 13.2 µM; GI50 (HCT-116 [7]): 13.9 µM
Cn1ncnc2c(=O)n(C)c(=O)nc1-2	-0.5	–
O=C(O)c1ccccc1-c1c2ccc(=O)cc-2oc2cc(O)ccc12	0.1	–
CN(C)c1ccc(-c2nc3cc(F)ccc3[nH]2)cc1	-0.1	–
COc1c(C[C@H](C)OC(=O)c2c(C)cc(O)cc2O)c2c3c(C[C@H](C)OC(=O)c4c(C)cc(O)cc4O)c(OC)c(=O)c4c(O)cc(OC)c(c5c(OC)cc(O)c(c1=O)c52)c43	–	IC50 (TCF4-CTNNB1 complex): 10 µM
CN(C)CCOc1nc2ccccc2nc1C#Cc1ccccc1	0	–
COc1ccc2[nH]c3c(-c4cccc5ccccc45)nccc3c2c1	-0.9	IC50 [8]: < 0.5 µM; IC50 [9]: < 0.5 µM
CC(C)c1cc2c(c(O)c1O)[C@@]1(C(=O)O)CCCC(C)(C)[C@@H]1CC2 [CARNOSIC ACID]	-2.7	Kd (Catenin beta-1 [10]): 20 µM; Ki [11]: 3 µM
CCc1cccc2c3c([nH]c12)[C@@](CC)(CC(=O)O)OCC3 [SDX-101]	-0.5	IC50 (Catenin beta-1 [12]): 683 µM; IC50 [13]: 46 µM
Cc1ccc(S(=O)(=O)Nc2cccc(C(=O)O)c2)cc1	-0.5	–
CC(C)(C)NS(=O)(=O)c1ccc2c(c1)C(=O)c1ccccc1C2=O	–	Kd [14]: 0.00145 µM
O=C1C(Cl)=C(Nc2ccc(S(=O)(=O)Nc3ccccn3)cc2)C(=O)c2ccccc21	–	IC50 [15]: 2.3 µM
CCc1ccc(-c2nc(CSCC(=O)NCCc3ccccc3)c(C)o2)cc1	-0.7	–
Fc1ccc2nc(OCCN3CCCC3)c(C#Cc3ccccc3)nc2c1	0.1	IC50 (A549): 10 µM
